pIC50: −log10 of the molar value.
Tests used:
[1] = target: human recombinant FGFR1 (Homo sapiens, UniProt P11362); assay: FGFR family enzymatic activity assay (Caliper-based kinase assay), FGFR1; format: biochemical; conditions: FGFR1 0.5 nM, ATP 100 μM, peptide substrate 1 μM, room temperature 3 h
From the text: A Caliper-based kinase assay (Caliper Life Sciences, Hopkinton, Mass.) was used to measure inhibition of FGFR family (FGFR1, FGFR2, FGFR3, FGFR4) kinase activity of a compound of Formula (I′) or (I). […] This value is presented as the IC50.

[2] = test system: SNU-16 cells; assay: Inhibition of FGFR2-dependent cell growth (Cell-titer Glo); format: cell-based; conditions: Homo sapiens, SNU16 cells, 72 hrs incubation, cell viability by Cell-titer Glo
Experimental: The cell-based effects of FGFR inhibitors were determined by measuring inhibition of FGFR-dependent cell line growth. […] Percent inhibition of cell growth was calculated as a percentage of untreated cell viability. The percent inhibition was plotted as a function of log compound concentration. The IC50 was then calculated for each compound using Prism software from GraphPad.

human recombinant FGFR1, sequence (P11362 22-822): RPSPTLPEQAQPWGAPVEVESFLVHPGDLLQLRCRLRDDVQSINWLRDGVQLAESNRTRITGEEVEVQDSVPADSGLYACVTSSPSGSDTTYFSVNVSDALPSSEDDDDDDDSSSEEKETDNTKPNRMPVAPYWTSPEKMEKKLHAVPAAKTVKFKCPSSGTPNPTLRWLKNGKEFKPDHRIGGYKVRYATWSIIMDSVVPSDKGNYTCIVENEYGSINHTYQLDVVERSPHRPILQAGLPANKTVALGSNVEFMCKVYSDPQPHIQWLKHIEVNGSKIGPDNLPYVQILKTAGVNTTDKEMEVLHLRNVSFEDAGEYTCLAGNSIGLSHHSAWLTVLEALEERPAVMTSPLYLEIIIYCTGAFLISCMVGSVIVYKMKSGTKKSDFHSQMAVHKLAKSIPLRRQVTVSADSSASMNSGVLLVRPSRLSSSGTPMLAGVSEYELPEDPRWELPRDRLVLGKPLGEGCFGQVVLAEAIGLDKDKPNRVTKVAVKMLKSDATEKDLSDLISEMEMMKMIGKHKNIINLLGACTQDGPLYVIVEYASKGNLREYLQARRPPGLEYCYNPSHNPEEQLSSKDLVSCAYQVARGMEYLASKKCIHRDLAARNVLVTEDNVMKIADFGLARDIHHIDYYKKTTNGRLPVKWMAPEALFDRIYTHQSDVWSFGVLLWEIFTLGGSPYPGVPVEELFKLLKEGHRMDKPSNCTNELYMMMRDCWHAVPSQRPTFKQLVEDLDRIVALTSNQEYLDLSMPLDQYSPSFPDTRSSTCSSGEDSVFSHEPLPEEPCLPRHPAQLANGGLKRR

Compound | pIC50 [1] | pIC50 [2]
C=CC(=O)Nc1ccc(CCn2c(=O)c(-c3cc(OC)cc(OC)c3Cl)cc3cnc(NCCN4CCOCC4)nc32)cc1Cl [Example 56, N-(4-(2-(6-(2-chloro-3,5-dimethoxyphenyl)-2-((2-morpholinoethyl)amino)-7-oxopyrido[2,3-d]pyrimidin-8(7H)-yl)ethyl)-2-chlorophenyl)acrylamide] | 8.43 | 8.30
C=CC(=O)Nc1ccc(CCn2c(=O)c(-c3c(Cl)c(OC)cc(OC)c3Cl)cc3cnc(NC4CCOCC4)nc32)cc1 [Example 89, N-(4-(2-(6-(2,6-dichloro-3,5-dimethoxyphenyl)-7-oxo-2-((tetrahydro-2H-pyran-4-yl)amino)pyrido[2,3-d]pyrimidin-8(7H)-yl)ethyl)phenyl)acrylamide] | 9.70 | 8.32
C=CC(=O)Nc1ccc(CCn2c(=O)c(-c3c(Cl)c(OC)cc(OC)c3Cl)cc3cnc(NCC4(O)CCN(C)CC4)nc32)cc1 [Example 98, N-(4-(2-(6-(2,6-dichloro-3,5-dimethoxyphenyl)-2-(((4-hydroxy-1-methylpiperidin-4-yl)methyl)-amino)-7-oxopyrido[2,3-d]pyrimidin-8(7H)-yl)ethyl)phenyl)acrylamide] | 9.52 | 7.79
C=CC(=O)Nc1nc(CCn2c(=O)c(-c3cc(OC)cc(OC)c3Cl)cc3cnc(NC)nc32)cs1 [Example 33, N-(4-(2-(6-(2-chloro-3,5-dimethoxyphenyl)-2-(methylamino)-7-oxopyrido[2,3-d]-pyrimidin-8(7H)-yl)ethyl)thiazol-2-yl)acrylamide] | 8.39 | 7.49
C=CC(=O)Nc1ccc(CCn2c(=O)c(-c3c(Cl)c(OC)cc(OC)c3Cl)cc3cnc(NC(C)(CO)CO)nc32)nc1 [Example 99, N-(6-(2-(6-(2,6-dichloro-3,5-dimethoxyphenyl)-2-((1,3-dihydroxy-2-methylpropan-2-yl)-amino)-7-oxopyrido[2,3-d]pyrimidin-8(7H)-yl)ethyl)pyridin-3-yl)acrylamide] | 8.92 | 8.59
C=CC(=O)Nc1ccc(CCn2c(=O)c(-c3c(Cl)c(OC)cc(OC)c3Cl)cc3cnc(NC(C)C)nc32)nc1 [Example 80, N-(6-(2-(6-(2,6-dichloro-3,5-dimethoxyphenyl)-2-(isopropylamino)-7-oxopyrido[2,3-d]pyrimidin-8(7H)-yl)ethyl)pyridin-3-yl)acrylamide] | 9.30 | 8.02
C=CC(=O)Nc1ccc(CCn2c(=O)c(-c3c(Cl)c(OC)cc(OC)c3Cl)cc3cnc(NCCO)nc32)nc1 [Example 86, N-(6-(2-(6-(2,6-dichloro-3,5-dimethoxyphenyl)-2-((2-hydroxyethyl)amino)-7-oxopyrido[2,3-d]pyrimidin-8(7H)-yl)ethyl)pyridin-3-yl)acrylamide] | 9.22 | 7.94
C=CC(=O)Nc1cccc(Cn2c(=O)c(-c3cc(OC)cc(OC)c3Cl)cc3cnc(NCCN4CCOCC4)nc32)c1 [Example 102, N-(3-((6-(2-chloro-3,5-dimethoxyphenyl)-2-((2-morpholinoethyl)amino)-7-oxopyrido[2,3-d]pyrimidin-8(7H)-yl)methyl)phenyl)acrylamide] | 9.00 | 8.41
C=CC(=O)Nc1ccc(CCn2c(=O)c(-c3cc(OC)cc(OC)c3F)cc3cnc(NCCN4CCOCC4)nc32)cc1F [Example 53, N-(2-fluoro-4-(2-(6-(2-fluoro-3,5-dimethoxyphenyl)-2-((2-morpholinoethyl)amino)-7-oxopyrido[2,3-d]pyrimidin-8(7H)-yl)ethyl)phenyl)acrylamide] | 7.54 | 7.15
C=CC(=O)Nc1ccc(CCn2c(=O)c(-c3c(Cl)c(OC)cc(OC)c3Cl)cc3cnc(NC(C)(C)CO)nc32)nc1 [Example 94, N-(6-(2-(6-(2,6-dichloro-3,5-dimethoxyphenyl)-2-((1-hydroxy-2-methylpropan-2-yl)amino)-7-oxopyrido[2,3-d]pyrimidin-8(7H)-yl)ethyl)pyridin-3-yl)acrylamide] | 8.68 | 8.13
C=CC(=O)Nc1ccc(CCn2c(=O)c(-c3c(Cl)c(OC)cc(OC)c3Cl)cc3cnc(NCC)nc32)nc1 [Example 79, N-(6-(2-(6-(2,6-dichloro-3,5-dimethoxyphenyl)-2-(ethylamino)-7-oxopyrido[2,3-d]pyrimidin-8(7H)-yl)ethyl)pyridin-3-yl)acrylamide] | 9.70 | 8.47

The remaining lines, values ahead:

pIC50 [1] | pIC50 [2] | Compound
8.47 | 7.61 | C=CS(=O)(=O)Nc1ccc(CCn2c(=O)c(-c3cc(OC)cc(OC)c3Cl)cc3cnc(NC)nc32)cc1 [Example 20, N-(4-(2-(6-(2-chloro-3,5-dimethoxyphenyl)-2-(methylamino)-7-oxopyrido[2,3-d]pyrimidin-8(7H)-yl)ethyl)phenyl)ethenesulfonamide]
8.80 | 8.46 | C=CC(=O)Nc1ccc(CCn2c(=O)c(-c3cc(OC)cc(OC)c3Cl)cc3cnc(NCC(C)(C)O)nc32)nc1 [Example 109, N-(6-(2-(6-(2-chloro-3,5-dimethoxyphenyl)-2-((2-hydroxy-2-methylpropyl)amino)-7-oxopyrido[2,3-d]pyrimidin-8(7H)-yl)ethyl)pyridin-3-yl)acrylamide]
8.89 | 9.10 | C=CC(=O)Nc1ccc(CCn2c(=O)c(-c3cc(OC)cc(OC)c3Cl)cc3cnc(NCCN4C[C@@H](C)O[C@@H](C)C4)nc32)cc1 [Example 58, N-(4-(2-(6-(2-chloro-3,5-dimethoxyphenyl)-2-((2-((2R,6S)-2,6-dimethyl-morpholino)ethyl)-amino)-7-oxopyrido[2,3-d]pyrimidin-8(7H)-yl)ethyl)phenyl)acrylamide]
9.22 | 8.44 | C=CC(=O)Nc1ccc(CCn2c(=O)c(-c3cc(OC)cc(OC)c3Cl)cc3cnc(NCC4CC4)nc32)nc1 [Example 103, N-(6-(2-(6-(2-chloro-3,5-dimethoxyphenyl)-2-((cyclopropylmethyl)amino)-7-oxopyrido[2,3-d]pyrimidin-8(7H)-yl)ethyl)pyridin-3-yl)acrylamide]
8.37 | 8.42 | C=CC(=O)Nc1ccc(CCn2c(=O)c(-c3cc(OC)cc(OC)c3Cl)cc3cnc(NCC(C)(C)O)nc32)cn1 [Example 28, N-(5-(2-(6-(2-chloro-3,5-dimethoxyphenyl)-2-((2-hydroxy-2-methylpropyl)amino)-7-oxopyrido[2,3-d]pyrimidin-8(7H)-yl)ethyl)pyridin-2-yl)acrylamide]
8.13 | 7.93 | C=CC(=O)Nc1ccc(CCn2c(=O)c(-c3cc(OC)cc(OC)c3Cl)cc3cnc(NCCn4ccnc4)nc32)cc1 [Example 50, N-(4-(2-(2-((2-(1H-imidazol-1-yl)ethyl)amino)-6-(2-chloro-3,5-dimethoxyphenyl)-7-oxopyrido[2,3-d]pyrimidin-8(7H)-yl)ethyl)phenyl)acrylamide]
9.10 | 7.87 | C=CC(=O)Nc1ccc(CCn2c(=O)c(-c3cc(OC)cc(OC)c3Cl)cc3cnc(NCCO)nc32)nc1 [Example 104, N-(6-(2-(6-(2-chloro-3,5-dimethoxyphenyl)-2-((2-hydroxyethyl)amino)-7-oxopyrido[2,3-d]pyrimidin-8(7H)-yl)ethyl)pyridin-3-yl)acrylamide]
8.66 | 7.88 | C=CC(=O)Nc1ccc(CCn2c(=O)c(-c3cc(OC)cc(OC)c3Cl)cc3cnc(NCCN4CCS(=O)(=O)CC4)nc32)cc1 [Example 74, N-(4-(2-(6-(2-chloro-3,5-dimethoxyphenyl)-2-((2-(1,1-dioxidothiomorpholino)-ethyl)amino)-7-oxopyrido[2,3-d]pyrimidin-8(7H)-yl)ethyl)phenyl)acrylamide]
9.22 | 8.38 | C=CC(=O)Nc1ccc(CCn2c(=O)c(-c3cc(OC)cc(OC)c3Cl)cc3cnc(NCC(C)(C)CO)nc32)cc1 [Example 83, N-(4-(2-(6-(2-chloro-3,5-dimethoxyphenyl)-2-((3-hydroxy-2,2-dimethyl-propyl)amino)-7-oxopyrido[2,3-d]pyrimidin-8(7H)-yl)ethyl)phenyl)acrylamide]
9.30 | 9.22 | C#CCNc1ncc2cc(-c3cc(OC)cc(OC)c3Cl)c(=O)n(CCc3ccc(NC(=O)C=C)cn3)c2n1 [Example 59, N-(6-(2-(6-(2-chloro-3,5-dimethoxyphenyl)-7-oxo-2-(prop-2-yn-1-ylamino)pyrido-[2,3-d]pyrimidin-8(7H)-yl)ethyl)pyridin-3-yl)acrylamide]
9.05 | 8.52 | C=CC(=O)Nc1ccc(CCn2c(=O)c(-c3cc(OC)cc(OC)c3Cl)cc3cnc(NCCN4CCN(C5COC5)CC4)nc32)cc1 [Example 78, N-(4-(2-(6-(2-chloro-3,5-dimethoxyphenyl)-2-((2-(4-(oxetan-3-yl)piperazin-1-yl)ethyl)amino)-7-oxopyrido[2,3-d]pyrimidin-8(7H)-yl)ethyl)phenyl)acrylamide]
8.92 | 9.00 | CNc1ncc2cc(-c3cc(OC)cc(OC)c3Cl)c(=O)n(CCc3cccc(NC(=O)/C=C/CN(C)C)c3)c2n1 [Example 23, (E)-N-(3-(2-(6-(2-chloro-3,5-dimethoxyphenyl)-2-(methylamino)-7-oxopyrido[2,3-d]pyrimidin-8(7H)-yl)ethyl)phenyl)-4-(dimethylamino)but-2-enamide]
8.77 | 8.74 | C=CC(=O)Nc1ccc(CCn2c(=O)c(-c3cc(OC)cc(OC)c3Cl)cc3cnc(NCC(C)(C)O)nc32)cc1 [Example 24, N-(4-(2-(6-(2-chloro-3,5-dimethoxyphenyl)-2-((2-hydroxy-2-methylpropyl)amino)-7-oxopyrido[2,3-d]pyrimidin-8(7H)-yl)ethyl)phenyl)acrylamide]

Reference: US9630963B2, “Quinolone derivatives as fibroblast growth factor inhibitors” (Principia Biopharma, Inc., priority 2013, dated 2017)
